Molecular target: T1, human recombinant ROCK II (Homo sapiens, UniProt O75116)
T1 construct: recombinant human ROCK-II residues 11-552; His6 (N); purchased Millipore GmbH, Schwalbach, Germany
Experiment: Determination of Rho kinase inhibition (ROCK II, Caliper peptide phosphorylation assay)
Assay type: biochemical
Conditions: respective form (salt or free base) as obtained in the examples, 60 min at 32° C.
Experimental: To measure Rho-kinase inhibition, IC50 values were determined according to the following protocol:
Active human recombinant ROCK II (N-terminal His6-tagged recombinant human ROCK-II residues 11-552) was purchased from Millipore GmbH, Schwalbach, Germany. The peptide substrate, Fluorescein-[…]-COOH, was obtained from JPT Peptide Technologies, Berlin, Germany. Adenosine-5′-triphosphate (ATP), bovine serum albumine (BSA), dimethylsulphoxide (DMSO), 4-(2-hydroxyethyl)piperazine-1-ethanesulfonic acid (Hepes), Brij-35, dithiothreitol (DTT) and Pluronic F-68 were purchased from Sigma-Aldrich, Munich, Germany. Tris(hydroxymethyl)-aminomethane (Tris), magnesium chloride, NaOH, 1M HCl and EDTA were obtained from Merck Biosciences, Darmstadt, Germany. “Complete” protease inhibitor was from Roche Diagnostics, Mannheim, Germany. Test compounds were diluted to the appropriate concentrations in buffer 1 (25 mM Tris-HCl, pH 7.4, 5 mM MgCl2, 2 mM DTT, 0.02% (w/v) BSA, 0.01% Pluronic F-68 and 3% DMSO). The ROCK II enzyme was diluted to a concentration of 100 ng/mL in buffer 2 (25 mM Tris-HCl, pH 7.4, 5 mM MgCl2, 2 mM DTT and 0.02% (w/v) BSA). The peptide substrate and ATP were diluted to concentrations of 3 μM and 120 μM, respectively, in the buffer 2. Two μl of the compound solution were mixed with 2 μl of the diluted enzyme in a 384-well small volume microtiter plate (Greiner, Bio-One, Frickenhausen, Germany), and the kinase reaction was initiated by addition of 2 μl of the solution containing peptide substrate and ATP. After 60 min incubation at 32° C., the reaction was stopped by addition of 20 μl of a solution containing 100 mM Hepes-NaOH, pH 7.4, 0.015% (v/v) Brij-35, 45 mM EDTA and 0.227% chip coating reagent 1 (Caliper Lifescience Inc, Hopkinton, Mass.). Phosphorylation of the substrate peptide was then detected on a Caliper 3000 instrument essentially as described by Pommereau et al (J. Biomol. Screening 2004, 9(5), 409-416). Separation conditions were as follows: Pressure −1.3 psi, upstream voltage −1562 V, downstream voltage −500 V, sample sip time 200 ms. Positive controls (buffer 1 instead of compound) and negative controls (buffer 1 instead of compound and buffer 2 instead of ROCK II) were run in parallel on each plate.
The following products/compounds were tested in said assay by using the respective form (salt or free base) obtained as in the examples described above and the following activities were measured

T1 sequence (O75116 11-552): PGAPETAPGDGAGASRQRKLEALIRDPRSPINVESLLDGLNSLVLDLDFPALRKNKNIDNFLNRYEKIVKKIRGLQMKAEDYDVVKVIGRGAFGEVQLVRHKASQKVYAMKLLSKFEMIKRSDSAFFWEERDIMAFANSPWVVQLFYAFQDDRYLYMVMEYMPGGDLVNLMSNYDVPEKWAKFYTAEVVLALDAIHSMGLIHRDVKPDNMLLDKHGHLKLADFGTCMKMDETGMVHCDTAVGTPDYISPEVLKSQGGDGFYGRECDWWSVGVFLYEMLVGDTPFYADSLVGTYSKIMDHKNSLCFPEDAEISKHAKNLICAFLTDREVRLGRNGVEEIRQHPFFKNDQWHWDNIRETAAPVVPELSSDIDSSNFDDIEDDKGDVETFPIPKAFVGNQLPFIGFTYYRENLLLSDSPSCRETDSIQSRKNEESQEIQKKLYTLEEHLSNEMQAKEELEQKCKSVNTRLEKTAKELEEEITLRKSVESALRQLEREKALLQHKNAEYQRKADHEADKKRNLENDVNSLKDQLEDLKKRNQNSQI

| SMILES | IC50 [nM] | pIC50 |
| --- | --- | --- |
| CCOC1(C(N)CC)CCC(Oc2cc3cc[nH]c(=O)c3cc2Cl)CC1 (mixture of isomers) [Example 60, 6-[4-(1-Amino-propyl)-4-ethoxy-cyclohexyloxy]-7-chloro-2H-isoquinolin-1-one] | 10 to 100 | – |
| CCC(N)[C@]1(C)CC[C@H](Oc2cc3cc[nH]c(=O)c3cc2Cl)CC1 (mixture of isomers) [Example 26, cis-6-[4-(1-Amino-propyl)-4-methyl-cyclohexyloxy]-7-chloro-2H-isoquinolin-1-one] | ≤ 10 | – |
| CCC(N)C1(COC(C)C)CCC(Oc2cc3cc[nH]c(=O)c3cc2Cl)CC1 (single isomer, unassigned) [Example 20, 6-[4-(1-Amino-propyl)-4-isopropoxymethyl-cyclohexyloxy]-7-chloro-2H-isoquinolin-1-one] | 100 to 1000 | – |
| CCC(N)C1(C2CCCC2)CCC(Oc2cc3cc[nH]c(=O)c3cc2Cl)CC1 (single isomer, unassigned) [Example 24, 6-[4-(1-Amino-propyl)-4-cyclopentyl-cyclohexyloxy]-7-chloro-2H-isoquinolin-1-one] | 10 to 100 | – |
| CCC(N)C1(CC(C)C)CCC(Oc2cc3cc[nH]c(=O)c3cc2Cl)CC1 (single isomer, unassigned) [Example 29, 6-[4-(1-Amino-propyl)-4-isobutyl-cyclohexyloxy]-7-chloro-2H-isoquinoIin-1-one] | 10 to 100 | – |
| NC(C(F)(F)F)C1(CC2CC2)CCC(Oc2cc3cc[nH]c(=O)c3cc2Cl)CC1 (single isomer, unassigned) [Example 40, 6-[4-(1-Amino-2,2,2-trifluoro-ethyl)-4-cyclo-propylmethyl-cyclohexyloxy]-7-chloro-2H-isoquinolin-1-one] | 100 to 1000 | – |
| CC(C)C1(C(N)c2nccs2)CCC(Oc2cc3cc[nH]c(=O)c3cc2Cl)CC1 (single isomer, unassigned) [Example 46, 6-[4-(Amino-thiazol-2-yl-methyl)-4-isopropyl-cyclohexyl-oxy]-7-chloro-2H-isoquinolin-1-one] | 100 to 1000 | – |
| CCC1(C(N)CCOC)CCC(Oc2cc3cc[nH]c(=O)c3cc2Cl)CC1 (single isomer, unassigned) [Example 98, 6-[4-(1-amino-3-methoxy-propyl)-4-ethyl-cyclohexyloxy]-7-chloro-2H-isoquinolin-1-one] | 10 to 100 | – |
| CCC(N)C1(C(F)(F)F)CCC(Oc2cc3cc[nH]c(=O)c3cc2Cl)CC1 (single isomer, unassigned) [Example 104, 6-[4-(1-Amino-propyl)-4-trifluoromethyl-cyclohexyloxy]-7-chloro-2H-isoquinolin-1-one] | 100 to 1000 | – |
| CCC(N)C1(C2CCOCC2)CCC(Oc2cc3cc[nH]c(=O)c3cc2Cl)CC1 (single isomer, unassigned) [Example 105] | 10 to 100 | – |
| CCCC[C@]1(C(N)CC)CC[C@@H](Oc2cc3c(Cc4ccccc4)c[nH]c(=O)c3cc2Cl)CC1 (stereo partly drawn) [Example 39, cis-6-[4-(1-Amino-propyl)-4-butyl-cyclohexyloxy]-4-benzyl-7-chloro-2H-isoquinolin-1-one] | 100 to 1000 | – |
| CCC(N)[C@]1(CC)CC[C@H](Oc2c(F)cc3c(=O)[nH]ccc3c2C)CC1 (stereo partly drawn) [Example 51, cis-6-[4-(1-Amino-propyl)-4-ethyl-cyclohexyloxy]-7-fluoro-5-methyl-2H-isoquinolin-1-one] | 100 to 1000 | – |
| CCC(N)[C@]1(CC)CC[C@H](Oc2c(C)cc3cnccc3c2C)CC1 (stereo partly drawn) [Example 53, cis-1-[4-(5,7-Dimethyl-isoquinolin-6-yloxy)-1-ethyl-cyclohexyl]-propylamine] | 100 to 1000 | – |
| CCC(N)[C@]1(CC)CC[C@H](Oc2cc3ccncc3cc2C)CC1 (stereo partly drawn) [Example 56, cis-1-[1-Ethyl-4-(7-methyl-isoquinolin-6-yloxy)-cyclohexyl]-propylamine] | 100 to 1000 | – |
| CCC(N)[C@]1(CC)CC[C@H](Oc2c(F)cc3cnccc3c2C)CC1 (stereo partly drawn) [Example 57, cis-1-[1-Ethyl-4-(7-fluoro-5-methyl-isoquinolin-6-yloxy)-cyclohexyl]-propylamine] | 100 to 1000 | – |
| NC(c1ccccc1)[C@]1(CC2CC2)CC[C@H](Oc2cc3cc[nH]c(=O)c3cc2Cl)CC1 (stereo partly drawn) [Example 63, cis-6-[4-(Amino-phenyl-methyl)-4-cyclopropylmethyl-cyclohexyloxy]-7-chloro-2H-isoquinolin-1-one] | 100 to 1000 | – |
| CCC(N)[C@]1(CCCC(F)(F)F)CC[C@H](Oc2cc3cc[nH]c(=O)c3cc2Cl)CC1 (stereo partly drawn) [Example 66, cis-6-[4-(1-Amino-propyl)-4-(4,4,4-trifluoro-butyl)-cyclohexyloxy]-7-chloro-2H-isoquinolin-1-one] | ≤ 10 | – |
| CCC(N)[C@]1(CC2CCOCC2)CC[C@H](Oc2cc3cc[nH]c(=O)c3cc2Cl)CC1 (stereo partly drawn) [Example 67, cis-6-[4-(1-Amino-propyl)-4-(tetrahydro-pyran-4-ylmethyl)-cyclohexyloxy]-7-chloro-2H-isoquinolin-1-one] | 10 to 100 | – |
| CCOC[C@]1(C(N)CC)CC[C@@H](Oc2cc3cc[nH]c(=O)c3cc2Cl)CC1 (stereo partly drawn) [Example 71, cis-6-[4-(1-Amino-propyl)-4-ethoxymethyl-cyclohexyloxy]-7-chloro-2H-isoquinolin-1-one] | ≤ 10 | – |
| CC[C@]1(C(C)N)CC[C@@H](Oc2c(F)cc3c(=O)[nH]ccc3c2C)CC1 (stereo partly drawn) [Example 79, cis-6-[4-(1-Amino-ethyl)-4-ethyl-cyclohexyloxy]-7-fluoro-5-methyl-2H-isoquinolin-1-one] | 100 to 1000 | – |
| CC[C@]1(C(C)N)CC[C@@H](Oc2c(F)cc3cnccc3c2C)CC1 (stereo partly drawn) [Example 80, cis-1-[1-Ethyl-4-(7-fluoro-5-methyl-isoquinolin-6-yloxy)-cyclohexyl]-ethylamine] | 100 to 1000 | – |
| CC[C@]1(C(C)N)CC[C@@H](Oc2cc3c(Cc4ccccc4)c[nH]c(=O)c3cc2Cl)CC1 (stereo partly drawn) [Example 81, cis-6-[4-(1-Amino-ethyl)-4-ethyl-cyclohexyloxy]-4-benzyl-7-chloro-2H-isoquinolin-1-one] | 100 to 1000 | – |
| CC[C@]1(C(C)N)CC[C@@H](Oc2cc3ccncc3cc2Br)CC1 (stereo partly drawn) [Example 82, cis-1-[4-(7-Bromo-isoquinolin-6-yloxy)-1-ethyl-cyclohexyl]-ethylamine] | 100 to 1000 | – |
| CC[C@]1(C(C)N)CC[C@@H](Oc2ccc3cnccc3c2Cl)CC1 (stereo partly drawn) [Example 84, cis-1-[4-(5-Chloro-isoquinolin-6-yloxy)-1-ethyl-cyclohexyl]-ethylamine] | 100 to 1000 | – |
| CCC(NCC1CC1)[C@]1(CC)CC[C@H](Oc2cc3cc[nH]c(=O)c3cc2Cl)CC1 (stereo partly drawn) [Example 85, cis-7-Chloro-6-{4-[1-(cyclopropylmethyl-amino)-propyl]-4-ethyl-cyclohexyloxy}-2H-isoquinolin-1-one] | 100 to 1000 | – |
| CCC(NCc1ccccc1)C1(CC)CCC(Oc2cc3cc[nH]c(=O)c3cc2Cl)CC1 (stereo not drawn) [Example 86, cis-6-[4-(1-Benzylamino-propyl)-4-ethyl-cyclohexyloxy]-7-chloro-2H-isoquinolin-1-one] | – | +++++ (6.0 ≦ pIC50 < 7.0) |
| CCC(NCC(C)C)[C@]1(CC)CC[C@H](Oc2cc3cc[nH]c(=O)c3cc2Cl)CC1 (stereo partly drawn) [Example 87, cis-7-Chloro-6-[4-ethyl-4-(1-isobutylamino-propyl)-cyclohexyloxy]-2H-isoquinolin-1-one] | 100 to 1000 | – |
| CCCCNC(CC)[C@]1(CC)CC[C@H](Oc2cc3cc[nH]c(=O)c3cc2Cl)CC1 (stereo partly drawn) [Example 88, cis-6-[4-(1-Butylamino-propyl)-4-ethyl-cyclohexyloxy]-7-chloro-2H-isoquinolin-1-one] | 100 to 1000 | – |
| CC(C)C(N)C1(C(C)C)CCC(Oc2cc3cc[nH]c(=O)c3cc2Cl)CC1 (stereo not drawn) [Example 89, 6-[4-(1-Amino-2-methyl-propyl)-4-isopropyl-cyclohexyloxy]-7-chloro-2H-isoquinolin-1-one] | 100 to 1000 | – |
| CCC[C@]1(C(C)N)CC[C@@H](Oc2cc3ccnc(N)c3cc2Cl)CC1 (stereo partly drawn) [Example 100, cis-6-[4-(1-Amino-ethyl)-4-propyl-cyclohexyloxy]-7-chloro-isoquinolin-1-ylamine] | 100 to 1000 | – |
